What is called IC50 is the concentration that gives 50% inhibition.

One experiment addresses IDH1R132C (Homo sapiens (Human), UniProt O75874, R132C). Nature of the experiment: Inhibitory activity against IDH1R132C enzyme (NADPH detection, WST-8). The class given is biochemical. The note with it: 10 nM, residual NADPH detected with WST-8, read-out: Test Example 1 IDH1 R132C IC50. Background: Tetrazolium dyes change colour on reduction, which living cells bring about.

Experiment [1] has as its system HT-1080 cells expressing IDH1R132C. Briefly: 2-HG production inhibitory activity using HT1080 cell. It counts as cell-based, human. The note with it: Homo sapiens, HT-1080; 2-HG production, HT1080 cells; read-out: Test Example 3 IC50. Here is the method: Then, 100 μL of growth medium B was added to each well, further 25 μL of a solution of each compound diluted to a predetermined concentration with growth medium B was added to each well, and the cells were incubated at 37° C. for 2 days under 5% CO2. […] Then, 150 μL of ultrapure water was further added to each well, and the mixture was stirred by pipetting and stored at −20° C.
The preserved solutions were thawed at room temperature.

Experiment [2] relates to HT1080 xenografted mice (IDH1R132C). Briefly: 2-HG production inhibitory activity using HT1080 xenografted mice. The class given is in vivo, mouse. The note with it: 2-HG production, HT1080 xenografted mice; for response vs control in vivo at 75 mg/kg: Mus musculus, HT-1080, po, 6 h, read-out: Test Example 5 Ratio (%). As for the experimental part:
HT1080 xenografted mice having successfully engrafted tumors were given by oral gavage each compound at 75 mg/kg a total of three times twice a day. The compound was suspended in a vehicle solution at 7.5 mg/mL using a homogenizer. Then, the suspension was stored at −20° C., thawed immediately before the administration, and given to mice. A negative control group for the test was given a vehicle by oral gavage. The body weights of the mice were measured using an automatic balance for small animals. The dosing solution was administered at a dose of 10 mL/kg body weight.
6 hours after the final administration, each mouse was euthanized with carbon dioxide. A portion of a tumor was collected, and its weight was measured using an electronic balance. Then, the tumor was frozen on dry ice. To the frozen tumor, methanol was added in an amount of 14 times the tumor weight. The resulting tumor was homogenized with Beads shocker (Yasui Kikai Corp.) and then incubated for 15 minutes in a freezer at −20° C. After centrifugation at 15000 rpm at 4° C. for 15 minutes using a high-speed refrigerated microcentrifuge, 250 μL of methanol and 400 μL of ultrapure water were added to 150 μL of the obtained supernatant. The prepared samples were subjected to 2-HG measurement.

IDH1R132C, sequence (O75874 whole entry R132C): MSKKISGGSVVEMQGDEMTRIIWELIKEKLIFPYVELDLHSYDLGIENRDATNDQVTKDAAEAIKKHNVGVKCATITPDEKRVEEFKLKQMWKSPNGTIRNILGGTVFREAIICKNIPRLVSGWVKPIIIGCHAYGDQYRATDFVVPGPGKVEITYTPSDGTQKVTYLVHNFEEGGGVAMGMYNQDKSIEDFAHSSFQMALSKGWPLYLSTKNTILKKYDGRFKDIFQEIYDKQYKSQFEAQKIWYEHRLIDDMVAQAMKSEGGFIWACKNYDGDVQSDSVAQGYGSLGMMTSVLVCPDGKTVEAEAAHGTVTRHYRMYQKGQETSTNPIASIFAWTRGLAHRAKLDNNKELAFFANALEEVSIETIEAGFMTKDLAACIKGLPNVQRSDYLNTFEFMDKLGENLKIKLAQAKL

As for `C=CC(=O)N1CCC(c2onc(-c3c(Cl)cc(Cl)cc3Cl)c2C(=O)n2cc3c4c(cccc42)/C(=C/C(=O)O)CC3)CC1` [Example 94, (2E)-[1-{[5-(1-Acryloylpiperidin-4-yl)-3-(2,4,6-trichlorophenyl)-1,2-oxazol-4-yl]carbonyl}-3,4-dihydrobenzo[cd]indol-5(1H)-ylidene]ethanoic acid], the 50% inhibitory concentration (IC50) on IDH1R132C is 0.159 µM; in experiment [1], 0.003 µM. The response vs control in vivo at 75 mg/kg in experiment [2] is 1%.
The like results for `CC1(c2onc(-c3c(Cl)cc(Cl)cc3Cl)c2C(=O)n2cc3c4c(cccc42)/C(=C/C(=O)O)CC3)COC1` [Example 8, (2E)-[1-{[5-(3-Methyloxetan-3-yl)-3-(2,4,6-trichlorophenyl)-1,2-oxazol-4-yl]carbonyl}-3,4-dihydrobenzo[cd]indol-5(1H)-ylidene]ethanoic acid] were, in that order, 0.055 µM, 0.022 µM and 67%.
With `Cc1cn(C(=O)c2c(-c3c(Cl)cc(Cl)cc3Cl)noc2C(C)(C)C)c2cccc(/C=C/C(=O)O)c12` [Example 33, (2E)-3-(1-{[5-(tert-Butyl)-3-(2,4,6-trichlorophenyl)-1,2-oxazol-4-yl]carbonyl}-3-methyl-1H-indol-4-yl)prop-2-enoic acid], the IC50 stood at 0.193 µM on IDH1R132C and 0.043 µM in experiment [1]. The response vs control in vivo at 75 mg/kg in experiment [2] came to 15%.
As to `C=CC(=O)N1C[C@@H](C)N(c2onc(-c3c(Cl)cc(Cl)cc3Cl)c2C(=O)n2ccc3c(/C=C/C(=O)O)cccc32)C[C@H]1C` [Example 152, (2E)-3-[1-({5-[(2R,5R)-4-Acryloyl-2,5-dimethylpiperazin-1-yl]-3-(2,4,6-trichlorophenyl)-1,2-oxazol-4-yl}carbonyl)-1H-indol-4-yl]prop-2-enoic acid], the half-inhibitory concentration (IC50) is 0.222 µM on IDH1R132C and 0.276 µM in experiment [1]. In addition, in experiment [2], the response vs control in vivo at 75 mg/kg was 87%.
The like results for `C=CC(=O)N1CCN(c2onc(-c3c(Cl)cc(Cl)cc3Cl)c2C(=O)n2ccc3c(/C=C/C(=O)O)cccc32)CC1` [Example 143, (2E)-3-(1-{[5-(4-Acryloylpiperazin-1-yl)-3-(2,4,6-trichlorophenyl)-1,2-oxazol-4-yl]carbonyl}-1H-indol-4-yl)prop-2-enoic acid] were, in that order, 0.15 µM, 0.148 µM and 60%.
The like results for `COC1(c2onc(-c3c(Cl)cc(Cl)cc3Cl)c2C(=O)n2ccc3c(/C=C/C(=O)O)cccc32)COC1` [Example 3, (2E)-3-(1-{[5-(3-Methoxyoxetan-3-yl)-3-(2,4,6-trichlorophenyl)-1,2-oxazol-4-yl]carbonyl}-1H-indol-4-yl)prop-2-enoic acid] were, in that order, 0.064 µM, 0.06 µM and 42%.
Consider `C=CC(=O)N1CCC(c2onc(-c3ccc(Cl)cc3Cl)c2C(=O)n2cc3c4c(cccc42)/C(=C/C(=O)O)CC3)CC1` [Example 131, (2E)-[1-{[5-(1-Acryloylpiperidin-4-yl)-3-(2,4-dichlorophenyl)-1,2-oxazol-4-yl]carbonyl}-3,4-dihydrobenzo[cd]indol-5(1H)-ylidene]ethanoic acid], for which the IC50 at IDH1R132C amounted to 0.133 µM; in experiment [1], 0.004 µM. Moreover, the response vs control in vivo at 75 mg/kg in experiment [2] turned out to be 3%.
As to `C=CC(=O)N1CC2(CC2)N(c2onc(-c3c(Cl)cccc3Cl)c2C(=O)n2ccc3c(/C=C/C(=O)O)cccc32)C[C@H]1CC` [Example 163, (2E)-3-[1-({5-[(6R)7-Acryloyl-6-ethyl-4,7-diazaspiro[2.5]oct-4-yl]-3-(2,6-dichlorophenyl)-1,2-oxazol-4-yl}carbonyl)-1H-indol-4-yl]prop-2-enoic acid], the IC50 on IDH1R132C stood at 0.098 µM; in experiment [1] it was 0.045 µM. In addition, in experiment [2], the response vs control in vivo at 75 mg/kg came out at 33%.
The like results for `COC1(c2onc(-c3c(Cl)cc(Cl)cc3Cl)c2C(=O)n2cc(C)c3c(/C=C/C(=O)O)cccc32)COC1` [Example 4, (2E)-3-(1-{[5-(3-Methoxyoxetan-3-yl)-3-(2,4,6-trichlorophenyl)-1,2-oxazol-4-yl]carbonyl}-3-methyl-1H-indol-4-yl)prop-2-enoic acid] were, in that order, 0.056 µM, 0.027 µM and 15%.
The like results for `Cc1cn(C(=O)c2c(-c3c(Cl)cc(Cl)cc3Cl)noc2C2(C)CCC2)c2cccc(/C=C/C(=O)O)c12` [Example 10, (2E)-3-(3-Methyl-1-{[5-(1-methylcyclobutyl)-3-(2,4,6-trichlorophenyl)-1,2-oxazol-4-yl]carbonyl}-1H-indol-4-yl)prop-2-enoic acid] were, in that order, 0.179 µM, 0.05 µM and 27%.
The like results for `C=CC(=O)N1CCC(C)(c2onc(-c3c(Cl)cc(Cl)cc3Cl)c2C(=O)n2cc(C)c3c(/C=C/C(=O)O)cccc32)CC1` [Example 113] were, in that order, 0.104 µM, 0.002 µM and 13%.
As to `C=CC(=O)N1CCC(c2onc(-c3c(Cl)cc(Cl)cc3Cl)c2C(=O)n2cc3c4c(cccc42)C(CC(=O)O)CC3)CC1` (stereo not drawn) [Example 125], the figures for the IC50 (at IDH1R132C; in experiment [1]) were 0.454 µM and 0.078 µM, respectively. The response vs control in vivo at 75 mg/kg in experiment [2] turned out to be 72%.
`Cc1cn(C(=O)c2c(-c3c(Cl)cc(F)cc3Cl)noc2C(C)(C)F)c2cccc(/C=C/C(=O)O)c12` [Example 49, (2E)-3-(1-{[3-(2,6-Dichloro-4-fluorophenyl)-5-(2-fluoropropan-2-yl)-1,2-oxazol-4-yl]carbonyl}-3-methyl-1H-indol-4-yl)prop-2-enoic acid]: the IC50 on IDH1R132C turned out to be 0.079 µM; in experiment [1], 0.119 µM. Moreover, the response vs control in vivo at 75 mg/kg in experiment [2] came out at 44%.
`C=CC(=O)N(C)C1(c2onc(-c3c(Cl)cc(Cl)cc3Cl)c2C(=O)n2cc(C)c3c(/C=C/C(=O)O)cccc32)CCC1` [Example 87, (2E)-3-(1-{[5-{1-[Acryloyl(methyl)amino]cyclobutyl}-3-(2,4,6-trichlorophenyl)-1,2-oxazol-4-yl]carbonyl}-3-methyl-1H-indol-4-yl)prop-2-enoic acid]: the 50% inhibitory concentration (IC50) amounted to 0.145 µM on IDH1R132C and 0.071 µM in experiment [1]. Also, in experiment [2], the response vs control in vivo at 75 mg/kg is 68%.
On to `Cc1cc(Cl)c(-c2noc(C(C)(C)C)c2C(=O)n2ccc3c(/C=C/C(=O)O)cccc32)c(Cl)c1` [Example 38, (2E)-3-(1-{[5-(tert-Butyl)-3-(2,6-dichloro-4-methylphenyl)-1,2-oxazol-4-yl]carbonyl}-1H-indol-4-yl)prop-2-enoic acid], for which the values for the IC50 (on IDH1R132C; in experiment [1]) were 0.234 µM and 0.2 µM, respectively. In addition, the response vs control in vivo at 75 mg/kg in experiment [2] was found to be 61%.
`Cc1cn(C(=O)c2c(-c3ccc(Cl)cc3Cl)noc2C(C)(C)F)c2cccc(/C=C/C(=O)O)c12` [Example 62, (2E)-3-(1-{[3-(2,4-Dichlorophenyl)-5-(2-fluoropropan-2-yl)-1,2-oxazol-4-yl]carbonyl}-3-methyl-1H-indol-4-yl)prop-2-enoic acid]: the results for the IC50 (at IDH1R132C; in experiment [1]) were 0.155 µM and 0.069 µM, respectively. The “Test Example 5 Ratio (%)” value in experiment [2] is 10%.
For `C=CC(=O)N1CCC(c2onc(-c3c(Cl)cc(Cl)cc3Cl)c2C(=O)n2ccc3c(/C=C/C(=O)O)cccc32)CC1` [Example 99], the IC50 on IDH1R132C came out at 0.272 µM; in experiment [1] it was 0.034 µM. The response vs control in vivo at 75 mg/kg in experiment [2] amounted to 15%.
For `CC1(c2onc(-c3c(Cl)cc(Cl)cc3Cl)c2C(=O)n2ccc3c(/C=C/C(=O)O)cccc32)CC1` [Example 37, (2E)-3-(1-{[5-(1-Methylcyclopropyl)-3-(2,4,6-trichlorophenyl)-1,2-oxazol-4-yl]carbonyl}-1H-indol-4-yl)prop-2-enoic acid], the 50% inhibitory concentration (IC50) at IDH1R132C was 0.117 µM; in experiment [1] it was 0.149 µM. Moreover, the response vs control in vivo at 75 mg/kg in experiment [2] was 35%.
The like results for `Cc1cc(C)c(-c2noc(C(C)(C)F)c2C(=O)n2cc(C)c3c(/C=C/C(=O)O)cccc32)c(C)c1` [Example 60, (2E)-3-(1-{[5-(2-Fluoropropan-2-yl)-3-(2,4,6-trimethylphenyl)-1,2-oxazol-4-yl]carbonyl}-3-methyl-1H-indol-4-yl)prop-2-enoic acid] were, in that order, 0.116 µM, 0.092 µM and 9%.
The like results for `Cc1cc(Cl)cc(C)c1-c1noc(C(C)(C)F)c1C(=O)n1cc(C)c2c(/C=C/C(=O)O)cccc21` [Example 55, (2E)-3-(1-{[3-(4-Chloro-2,6-dimethylphenyl)-5-(2-fluoropropan-2-yl)-1,2-oxazol-4-yl]carbonyl}-3-methyl-1H-indol-4-yl)prop-2-enoic acid] were, in that order, 0.125 µM, 0.062 µM and 15%.

Values taken from US10040791B2, “Isoxazole derivative as mutant isocitrate dehydrogenase 1 inhibitor” (Daiichi Sankyo Company, Limited, priority 2014, dated 2018).
